Reference: patent US20090286876A1, “NEUROPROTECTIVE BENZOATE AND BENZAMIDE COMPOUNDS” (Samaritan Pharmaceuticals, Inc., priority 2003, published 2009)
Where two headings read alike, the source gives them in different places.

What was measured:
PC12 cells [1] = assay: Reversal of Aβ1-42-induced ATP depletion (ATPLite-M assay); details: for ATP decrease induced by Aβ1-42, Aβ1-42 control = 100% reduction: 24 h pre-incubation, 24 h; for effect on Aβ1-42-induced ATP decrease, in words: compound 1-100 μM, Aβ1-42 0.1-10 μM
PC12 cells [2] = assay: Aβ1-42-induced free radical production (2,7-DCF fluorescent probe); details: compound 1-100 μM 24 h pre-incubation; Aβ1-42 0.1-10 μM 24 h
PC12 cells [3] = assay: Neuroprotection against Aβ1-42 cytotoxicity, MTT assay (NADPH diaphorase activity); format: cell-based, rat
PC12 cells [4] = assay: Glutamate-induced excitotoxicity, MTT assay; format: cell-based, rat; details: glutamate 100 μM 24 h
[5] = compound 1-100 μM, Aβ1-42 0.1-10 μM

Row | Compound | ATP decrease induced by Aβ1-42, Aβ1-42 control = 100% reduction (PC12 cells [1]; compound 1 μM, Aβ1-42 0.1 μM) | ATP decrease induced by Aβ1-42, Aβ1-42 control = 100% reduction (PC12 cells [1]; compound 1 μM, Aβ1-42 1 μM) | ATP decrease induced by Aβ1-42, Aβ1-42 control = 100% reduction (PC12 cells [1]; compound 1 μM, Aβ1-42 10 μM) | ATP decrease induced by Aβ1-42, Aβ1-42 control = 100% reduction (PC12 cells [1]; compound 10 μM, Aβ1-42 0.1 μM) | ATP decrease induced by Aβ1-42, Aβ1-42 control = 100% reduction (PC12 cells [1]; compound 10 μM, Aβ1-42 1 μM) | ATP decrease induced by Aβ1-42, Aβ1-42 control = 100% reduction (PC12 cells [1]; compound 10 μM, Aβ1-42 10 μM) | ATP decrease induced by Aβ1-42, Aβ1-42 control = 100% reduction (PC12 cells [1]; compound 100 μM, Aβ1-42 0.1 μM) | ATP decrease induced by Aβ1-42, Aβ1-42 control = 100% reduction (PC12 cells [1]; compound 100 μM, Aβ1-42 1 μM) | ATP decrease induced by Aβ1-42, Aβ1-42 control = 100% reduction (PC12 cells [1]; compound 100 μM, Aβ1-42 10 μM) | effect on Aβ1-42-induced ATP decrease, in words (PC12 cells [1]) | effect on Aβ1-42-induced free radical production, in words (PC12 cells [2]) | efficacy range, inhibition of Aβ1-42 toxicity (mitochondrial diaphorase activity) (PC12 cells [3]) | protective effect against Aβ1-42 neurotoxicity (MTT), in words (PC12 cells [3]; [5]) | neuroprotective effect against glutamate-induced cell death (MTT), in words (PC12 cells [4]; compound 0.3-30 μM 24 h pre-incubation) | concentration of maximum (peak) protective effect against glutamate (PC12 cells [4]; compound tested at 0.3-30 μM) | protective effect against Aβ1-42 neurotoxicity (MTT), in words (PC12 cells [3])
1 | CCCCNc1ccc(C(=O)OCCN(C)C)cc1 [Tetracaine] | 54.8 ± 4.0 % | 32.2 ± 5.5 % | 45.5 ± 6.1 % | 59.5 ± 9.6 % | 58.0 ± 18.9 % | 41.9 ± 4.2 % | 59.3 ± 10.5 % | 45.4 ± 2.2 % | 45.8 ± 6.5 % | significantly prevented the Aβ1-42-induced decrease of intracellular ATP levels | exhibited a trend to reduce the Aβ1-42-induced free radical production | – | – | – | – | –
2 | CC1=CCC23OC2(C)CCC2C(CN4CCN(C(=O)c5ccccc5)CC4)C(=O)OC2C13 (stereo not drawn) [SP017, 3-(4-benzoyl-piperazin-1-yl-methyl)-6,6a-epoxy-6,9-dimethyl-3a,4,5,6,6a,7,9a,9b-octahydro-3H-azuleno[4,5-b]furan-2-one] | 28.1 ± 7.2 % | 42.6 ± 5.8 % | 73.0 ± 12.1 % | 54.9 ± 15.6 % | 44.9 ± 8.1 % | 68.9 ± 7.3 % | 115 ± 21.4% | 108 ± 20.8% | 122 ± 6.7% | able to reverse the effect of Aβ1-42 on ATP | amplified the Aβ1-42-induced free radicals production | 30-70% | at 100 μM potentiated the toxic effect of Aβ1-42 | – | – | –
3 | CCN(CC)CCNC(=O)c1ccc(N)cc1 [Procainamide] | 46.8 ± 25.9 % | 51.4 ± 17.3 % | 56.5 ± 11.6 % | 60.4 ± 5.8 % | 61.7 ± 10.8 % | 56.2 ± 6.1 % | 40.9 ± 14.5 % | 40.8 ± 6.5 % | 52.2 ± 10.2 % | significantly prevented the Aβ1-42-induced decrease of intracellular ATP levels | exhibited a trend to reduce the Aβ1-42-induced free radical production | – | – | – | – | –
4 | CCN(CC)CC(=O)Nc1c(C)cccc1C [Lidocaine, (2-diethylamino)-N-(2,6-dimethylphenyl)-acetamide] | 38.7 ± 26.1 % | 62.0 ± 8.5 % | 53.5 ± 20.3 % | 47.2 ± 28.7 % | 69.0 ± 13.0 % | 65.0 ± 7.6 % | 65.3 ± 45.2% | 81.3 ± 8.7% | 70.1 ± 4.8 % | restored ATP concentrations in PC12 cells exposed to 0.1 and 1 μM Aβ1-42 | exhibited a trend to reduce the Aβ1-42-induced free radical production | – | – | – | – | –
5 | CC(=O)OC1CC(OC(C)=O)C2(C)C(O)C3C(CC(C)C12)OC(=O)C3CN1CCN(C(=O)c2ccccc2)CC1 (stereo not drawn) [SP016, acetic acid 5-acetoxy-3-(4-benzoyl-piperazin-1-yl-methyl)-4-hydroxy-4a, 8-dimethyl-2-oxo-dodecahydro-azuleno[6,5-b]furan-7-yl ester] | 49.5 ± 10.2 % | 81.5 ± 4.2% | 96.8 ± 30.6% | 101 ± 7.8% | 105 ± 10.1% | 110 ± 10.1% | 86.3 ± 15.7% | 100 ± 17.8% | 121 ± 29.0% | – | amplified the Aβ1-42-induced free radicals production | – | no protective activity | – | – | –
6 | CCN1CCN(OC(=O)c2ccc(OC)c(OC)c2OC)CC1 [SP008, (4-ethylpiperazinyl-1-yl)-2′,3′,4′-trimethoxybenzoate] | – | – | – | – | – | – | – | – | – | – | – | – | – | more important than that of procaine effect at the same concentration | 3 µM | –
7 | CC(=O)OC1CC(O)C2(C)C(OC(C)=O)C3C(CC(C)C12)OC(=O)C3CN1CCN(C(=O)c2ccccc2)CC1 (stereo not drawn) [SP015, Acetic acid 7-acetoxy-3-(4-benzoyl-piperazin-1-yl-methyl)-5-hydroxy-4a, 8-dimethyl-2-oxo-dodecahydro-azuleno[6,5-b]furan-4-yl ester] | 46.3 ± 10.1 % | 55.6 ± 5.3 % | 32.8 ± 9.4 % | 99.2 ± 13.1% | 124 ± 24.7% | 104 ± 22.5% | 91.5 ± 1.5% | 85.6 ± 12.3% | 73.8 ± 6.8 % | able to reverse the effect of Aβ1-42 on ATP | amplified the Aβ1-42-induced free radicals production | – | protected only at 1 and 10 μM concentrations against the highest concentration of Aβ1-42 | – | – | –
8 | (+)-MK801 | – | – | – | – | – | – | – | – | – | – | – | – | – | – | – | lessens in a dose-dependent manner PC12 cell viability decrease induced by Aβ1-42
